US20260055079A1, “PHTHALAZINONE COMPOUNDS AS PARP7 INHIBITORS” (AZKARRA THERAPEUTICS, INC., priority 2022, published 2026)

The compounds below were run against His-GST-PARP7 (Homo sapiens (Human), UniProt Q7Z3E1) (assay: PARP7 biochemical assay). Conditions: not given.
Chain of His-GST-PARP7 (Q7Z3E1 whole entry): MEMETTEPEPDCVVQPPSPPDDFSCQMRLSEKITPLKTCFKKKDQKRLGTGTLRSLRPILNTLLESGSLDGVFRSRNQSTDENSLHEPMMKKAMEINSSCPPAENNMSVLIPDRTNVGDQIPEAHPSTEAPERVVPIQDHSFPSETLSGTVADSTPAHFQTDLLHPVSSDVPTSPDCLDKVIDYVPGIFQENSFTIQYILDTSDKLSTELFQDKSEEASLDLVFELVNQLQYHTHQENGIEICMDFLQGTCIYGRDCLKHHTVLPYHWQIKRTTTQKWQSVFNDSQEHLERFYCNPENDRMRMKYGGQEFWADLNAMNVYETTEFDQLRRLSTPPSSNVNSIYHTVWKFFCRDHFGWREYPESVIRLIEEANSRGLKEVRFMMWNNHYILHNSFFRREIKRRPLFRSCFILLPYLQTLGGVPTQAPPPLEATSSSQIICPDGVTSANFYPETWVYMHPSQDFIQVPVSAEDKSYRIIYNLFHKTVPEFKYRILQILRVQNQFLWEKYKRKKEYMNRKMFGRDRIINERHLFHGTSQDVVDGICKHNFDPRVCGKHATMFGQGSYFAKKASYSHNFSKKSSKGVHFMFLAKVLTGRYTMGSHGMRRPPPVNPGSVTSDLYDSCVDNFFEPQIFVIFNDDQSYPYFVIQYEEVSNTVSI

`O=C(C1CC1)N1C[C@H]2CC[C@@H](C1)N2C(=O)c1cc(Cc2n[nH]c(=O)c3ccc(OC4CCC4)cc23)ccc1F` [Example 112, 6-Cyclobutoxy-4-(3-(3-(cyclopropanecarbonyl)-3,8-diazabicyclo[3.2.1]octane-8-carbonyl)-4-fluorobenzyl)phthalazin-1(2H)-one] gave an IC50 of 100 to 500 nM.

Same assay, conditions: read-out: PARP7 IC50

`COc1ccc2c(=O)[nH]nc(Cc3ccc(S(C)(=O)=O)c(C(=O)N4CCN(c5ccc(C#N)cn5)CC4)c3)c2c1` [Example 182, 6-(4-(5-((7-Methoxy-4-oxo-3,4-dihydrophthalazin-1-yl)methyl)-2-(methylsulfonyl)benzoyl)piperazin-1-yl)nicotinonitrile] and `N#Cc1ccc(N2CCN(C(=O)c3cc(Cc4n[nH]c(=O)c5ccc(NCCC(F)(F)F)cc45)ccc3F)CC2)nc1` [Example 33, 6-(4-(2-Fluoro-5-((4-oxo-7-((3,3,3-trifluoropropyl)amino)-3,4-dihydrophthalazin-1-yl)methyl)benzoyl)piperazin-1-yl)nicotinonitrile] cannot be ordered by IC50: less than 50 nM for the first, less than 50 nM for the second.

First: C#CCNc1ccc2c(=O)[nH]nc(Cc3ccc(F)c(C(=O)N4CCn5c(nnc5C(F)(F)F)C4)c3)c2c1 [Example 185, 4-(4-Fluoro-3-(3-(trifluoromethyl)-5,6,7,8-tetrahydro-[1,2,4]triazolo[4,3-a]pyrazine-7-carbonyl)benzyl)-6-(prop-2-yn-1-ylamino)phthalazin-1(2H)-one]
Second: CN(C(=O)C1CCN1)C1CN(C(=O)c2cc(Cc3n[nH]c(=O)c4ccc(OC5CCC5)cc34)ccc2F)C1 (centres unmarked) [Example 117, N-(1-(5-((7-cyclobutoxy-4-oxo-3,4-dihydrophthalazin-1-yl)methyl)-2-fluorobenzoyl)azetidin-3-yl)-N-methylazetidine-2-carboxamide]
The IC50 of the first is lower: 100 to 500 nM for the first, 500 to 2000 nM for the second.

`CC#Cc1ccc2c(=O)[nH]nc(C(C)CCCC(=O)N3CCN(c4ncc(C(F)(F)F)cn4)CC3)c2c1` (centres unmarked) [Example 195, 4-(6-Oxo-6-(4-(5-(trifluoromethyl)pyrimidin-2-yl)piperazin-1-yl)hexan-2-yl)-6-(prop-1-yn-1-yl)phthalazin-1(2H)-one] and `[2H]C([2H])(c1ccc(F)c(C(=O)N2CCN(c3ccc(C#N)cn3)CC2)c1)c1n[nH]c(=O)c2ccc(C#CC)cc12` [Example 73, 6-(4-(2-Fluoro-5-((4-oxo-7-(prop-1-yn-1-yl)-3,4-dihydrophthalazin-1-yl)methyl-d2)benzoyl)piperazin-1-yl)nicotinonitrile] cannot be ordered by IC50: less than 50 nM for the first, less than 50 nM for the second.

First: CN(C(=O)C1CCO1)C1CN(C(=O)c2cc(Cc3n[nH]c(=O)c4ccc(OC5CCC5)cc34)ccc2F)C1 (centres unmarked) [Example 122, N-(1-(5-((7-cyclobutoxy-4-oxo-3,4-dihydrophthalazin-1-yl)methyl)-2-fluorobenzoyl)azetidin-3-yl)-N-methyloxetane-2-carboxamide]
Second: N#Cc1cncc(N2CCN(C(=O)c3cc(Cc4n[nH]c(=O)c5ccc(OC6CCC6)cc45)ccc3F)CC2)c1 [Example 141, 5-(4-(5-((7-cyclobutoxy-4-oxo-3,4-dihydrophthalazin-1-yl)methyl)-2-fluorobenzoyl)piperazin-1-yl)nicotinonitrile]
The IC50 of the first is higher: 500 to 2000 nM for the first, 50 to 100 nM for the second.

Compared with `C/C(=C\C(F)(F)F)c1ccc2c(=O)[nH]nc(Cc3ccc(F)c(C(=O)N4CCN(c5ccc(C#N)cn5)CC4)c3)c2c1` [Example 32, (E)-6-(4-(2-fluoro-5-((4-oxo-7-(4,4,4-trifluorobut-2-en-2-yl)-3,4-dihydrophthalazin-1-yl)methyl)benzoyl)piperazin-1-yl)nicotinonitrile], `O=C(c1cccc(Cc2n[nH]c(=O)c3ccc(OC4CCC4)cc23)c1Cl)N1CCN(c2ncc(C(F)(F)F)cn2)CC1` [Example 171, 4-(2-Chloro-3-(4-(5-(trifluoromethyl)pyrimidin-2-yl)piperazine-1-carbonyl)benzyl)-6-cyclobutoxyphthalazin-1(2H)-one] is higher in IC50: less than 50 nM for the first, 50 to 100 nM for the second. The first is the more potent here.

`CC#Cc1ccc2c(=O)[nH]nc(Cc3ccc(F)c(C(=O)N(C)Cc4nnc(C(F)(F)F)o4)c3)c2c1` [Example 202, 2-Fluoro-N-methyl-5-((4-oxo-7-(prop-1-ynyl)-3,4-dihydrophthalazin-1-yl)methyl)-N-((5-(trifluoromethyl)-1,3,4-oxadiazol-2-yl)methyl)benzamide] and `CC#Cc1ccc2c(=O)[nH]nc(Cc3ccc(F)c(C(=O)N4CCN(c5ncc(C(F)(F)F)cn5)CC4)c3)c2c1` [Example 48, 4-(4-Fluoro-3-(4-(5-(trifluoromethyl)pyrimidin-2-yl)piperazine-1-carbonyl)benzyl)-6-(prop-1-yn-1-yl)phthalazin-1(2H)-one] fall in the same range of IC50: 100 to 500 nM for the first, 100 to 500 nM for the second.

Compared with `O=C(NC1CN(C(=O)C2CC2)C1)c1cc(Cc2n[nH]c(=O)c3ccc(OC4CCC4)cc23)ccc1F` [Example 203, 5-((7-Cyclobutoxy-4-oxo-3,4-dihydrophthalazin-1-yl)methyl)-N-(1-(cyclopropanecarbonyl)azetidin-3-yl)-2-fluorobenzamide], `O=c1[nH]nc(Cc2ccc3onc(N4CCN(c5ncc(C(F)(F)F)cn5)CC4)c3c2)c2cc(OC3CCC3)ccc12` [Example 209, 6-Cyclobutoxy-4-((3-(4-(5-(trifluoromethyl)pyrimidin-2-yl)piperazin-1-yl)benzo[d]isoxazol-5-yl)methyl)phthalazin-1(2H)-one] is higher in IC50: 100 to 500 nM for the first, greater than 2000 nM for the second. The first is the more potent here.

First: CC#Cc1ccc2c(=O)[nH]nc(Cc3ccc(F)c(C(=O)N4CC5CCC(C4)N5c4ccc(C#N)cn4)c3)c2c1 [Example 64, 6-(3-(2-Fluoro-5-((4-oxo-7-(prop-1-ynyl)-3,4-dihydrophthalazin-1-yl)methyl)benzoyl)-3,8-diazabicyclo[3.2.1]octan-8-yl)nicotinonitrile]
Second: O=C(NC1CN(c2ncc(C(F)(F)F)cn2)C1)c1cc(Cc2n[nH]c(=O)c3ccc(OC4CCC4)cc23)ccc1F [Example 205, 5-((7-Cyclobutoxy-4-oxo-3,4-dihydrophthalazin-1-yl)methyl)-2-fluoro-N-(1-(5-(trifluoromethyl)pyrimidin-2-yl)azetidin-3-yl)benzamide]
The IC50 of the first is lower: less than 50 nM for the first, greater than 2000 nM for the second.

“4-(4-Fluoro-3-(4-(5-(trifluoromethyl)pyrimidin-2-yl)piperazine-1-carbonyl)benzyl)-6-(3,3,3-trifluoroprop-1-yn-1-yl)phthalazin-1(2H)-one [Example 42]” and `N#Cc1ccc(N2CCN(C(=O)c3cc(Cc4n[nH]c(=O)c5ccc(S(=O)(=O)C6CC(F)(F)C6)cc45)ccc3F)CC2)nc1` [Example 54, 6-(4-(5-((7-((3,3-Difluorocyclobutyl)sulfonyl)-4-oxo-3,4-dihydrophthalazin-1-yl)methyl)-2-fluorobenzoyl)piperazin-1-yl)nicotinonitrile] fall in the same range of IC50: 500 to 2000 nM for the first, 500 to 2000 nM for the second.

First: O=C(c1cc(Cc2n[nH]c(=O)c3ccc(OC4CCC4)cc23)ccc1F)N1CCC2C1CCN2C(=O)C1CC1 (centres unmarked) [Example 109, 6-cyclobutoxy-4-(3-(4-(cyclopropanecarbonyl)octahydropyrrolo[3,2-b]pyrrole-1-carbonyl)-4-fluorobenzyl)phthalazin-1(2H)-one]
Second: CC#Cc1ccc2c(=O)[nH]nc(Cc3cc(C(=O)N4CCN(c5ccc(C#N)cn5)CC4)c(F)cc3F)c2c1 [Example 77, 6-(4-(2,4-Difluoro-5-((4-oxo-7-(prop-1-yn-1-yl)-3,4-dihydrophthalazin-1-yl)methyl)benzoyl)piperazin-1-yl)nicotinonitrile]
The IC50 of the first is higher: 100 to 500 nM for the first, less than 50 nM for the second.

Going from `O=C(C1CC1)N1CCN(c2noc3cc(Cc4n[nH]c(=O)c5ccc(OC6CCC6)cc45)ccc23)CC1` [Example 213, 6-cyclobutoxy-4-((3-(4-(cyclopropanecarbonyl)piperazin-1-yl)benzo[d]isoxazol-6-yl)methyl)phthalazin-1(2H)-one] to `CC(F)(F)c1cnc(N2CCN(C(=O)c3cc(Cc4n[nH]c(=O)c5ccc(OC6CCC6)cc45)ccc3F)CC2)nc1` [Example 161, 6-cyclobutoxy-4-(3-(4-(5-(1,1-difluoroethyl)pyrimidin-2-yl)piperazine-1-carbonyl)-4-fluorobenzyl)phthalazin-1(2H)-one], the IC50 falls from greater than 2000 nM to less than 50 nM. The second is the more potent here.

`O=C(c1cc(Cc2n[nH]c(=O)c3ccc(OC4CCC4)cc23)ccc1F)N1CC2CN(C(=O)C3CC3)CC2C1` (centres unmarked) [Example 119, 6-Cyclobutoxy-4-(3-(5-(cyclopropanecarbonyl)octahydropyrrolo[3,4-c]pyrrole-2-carbonyl)-4-fluorobenzyl)phthalazin-1(2H)-one] and `CNC(=O)c1ccnc(N(C)C2CN(C(=O)c3cc(Cc4n[nH]c(=O)c5ccc(OC6CCC6)cc45)ccc3F)C2)c1` [Example 123, 2-((1-(5-((7-cyclobutoxy-4-oxo-3,4-dihydrophthalazin-1-yl)methyl)-2-fluorobenzoyl)azetidin-3-yl)(methyl)amino)-N-methylisonicotinamide] fall in the same range of IC50: 500 to 2000 nM for the first, 500 to 2000 nM for the second.

The compounds below were run on NCI-H1373 (human lung adenocarcinoma) cells (assay: Cell proliferation assay (CellTiter-Glo), NCI-H1373). Conditions: Homo sapiens, NCI-H1373, 144 h, read-out: NCI-H1373 GI50.
Type: cell-based

`N#Cc1ccc(N2CCN(C(=O)c3cccc(Cc4n[nH]c(=O)c5ccc(Cl)cc45)c3)CC2)nc1` [Example 5, 6-(4-(3-((7-Chloro-4-oxo-3,4-dihydrophthalazin-1-yl)methyl)benzoyl)piperazin-1-yl)nicotinonitrile] and `N#Cc1ccc(N2CCN(C(=O)c3cccc(Cc4n[nH]c(=O)c5ccc(F)cc45)c3)CC2)nc1` [Example 6, 6-(4-(3-((7-Fluoro-4-oxo-3,4-dihydrophthalazin-1-yl)methyl)benzoyl)piperazin-1-yl)nicotinonitrile] fall in the same range of GI50: 100 to 1000 nM for the first, 100 to 1000 nM for the second.

`N#Cc1ccc(N2CCN(C(=O)c3cc(Cc4n[nH]c(=O)c5ccc(OCC6CC6)cc45)ccc3F)CC2)nc1` [Example 7, 6-(4-(5-((7-(Cyclopropylmethoxy)-4-oxo-3,4-dihydrophthalazin-1-yl)methyl)-2-fluorobenzoyl)piperazin-1-yl)nicotinonitrile] and `N#Cc1ccc(N2CCN(C(=O)c3cccc(Cc4n[nH]c(=O)c5ccc(Oc6ccccc6)cc45)c3)CC2)nc1` [Example 2, 6-(4-(3-((4-Oxo-7-phenoxy-3,4-dihydrophthalazin-1-yl)methyl)benzoyl)piperazin-1-yl)nicotinonitrile] cannot be ordered by GI50: less than 100 nM for the first, less than 100 nM for the second.

Same assay, conditions: Homo sapiens, NCI-H1373, 144 h; 6 days, CellTiter-Glo; read-out: NCI-H1373 GI50

First: COc1ccc2c(=O)[nH]nc(Cc3ccc(S(C)(=O)=O)c(C(=O)N4CCN(c5ccc(C#N)cn5)CC4)c3)c2c1 [Example 182, 6-(4-(5-((7-Methoxy-4-oxo-3,4-dihydrophthalazin-1-yl)methyl)-2-(methylsulfonyl)benzoyl)piperazin-1-yl)nicotinonitrile]
Second: N#Cc1ccc(N2CCN(C(=O)c3cc(Cc4n[nH]c(=O)c5ccc(NCCC(F)(F)F)cc45)ccc3F)CC2)nc1 [Example 33, 6-(4-(2-Fluoro-5-((4-oxo-7-((3,3,3-trifluoropropyl)amino)-3,4-dihydrophthalazin-1-yl)methyl)benzoyl)piperazin-1-yl)nicotinonitrile]
The GI50 of the first is higher: greater than 5000 nM for the first, 1000 to 5000 nM for the second.

In the case of `C#CCNc1ccc2c(=O)[nH]nc(Cc3ccc(F)c(C(=O)N4CCn5c(nnc5C(F)(F)F)C4)c3)c2c1` [Example 185, 4-(4-Fluoro-3-(3-(trifluoromethyl)-5,6,7,8-tetrahydro-[1,2,4]triazolo[4,3-a]pyrazine-7-carbonyl)benzyl)-6-(prop-2-yn-1-ylamino)phthalazin-1(2H)-one], the GI50 is reported as greater than 5000 nM.
